A word on the ED50: it is the dose that gives a 50% effect, or the effect in half of the subjects. By melting point is commonly meant the temperature, or range, at which the solid turns liquid. Broadly, the Emax is the size of the effect at its maximum, as opposed to the concentration needed.

Experimental findings from patent US10519162B2, “6,7-dihydropyrazolo[1,5-α]pyrazin-4(5H)-one compounds and their use as negative allosteric modulators of mGluR2 receptors” (Janssen Pharmaceutica NV, priority 2014, dated 2019) are described below.

In one series the test system is rats. The series is described as follows: Reversal of the effect of the mGluR2 PAM JNJ-42153605-induced inhibition of scopolamine-induced hyperlocomotion (SCOP JNJ-42153605). The format is in vivo, rat. As to conditions: for ED50: Rattus norvegicus, PO (oral route), rats, reversal criterion total distance >1500 cm. Here is the method: 2) Reversal of the Effect of the mGluR2 PAM JNJ-42153605-Induced Inhibition of Scopolamine-Induced Hyperlocomotion Apparatus
Motor activity was measured in microprocessor-based motor activity arenas (closed gray PVC cylinders with a height of 39 cm and a diameter of 31 cm). Each arena was placed on an infrared LED (8×8 LEDs) lit box (white PVC squared box; 40×40 cm^2; height 12.5 cm. An infrared-sensitive tube camera and a white light source were mounted to the ceiling above the observation chamber to track the animal. The total distance traveled (cm) was recorded and analyzed using the Noldus Ethovision XT Video Tracking System (Version 7.0.418; Noldus, Wageningen, The Netherlands). The intensity of the light within the activity cages (measured in the centre at the level of the floor) ranged between 4 and 8 LUX.
The rats were pretreated with test compound or vehicle at 60 min before the start of the activity recordings and placed into individual cages. The rats were challenged with JNJ-42153605 (3-(cyclopropylmethyl)-7-(4-phenylpiperidin-1-yl)-8-(trifluoromethyl)[1,2,4]triazolo[4,3-a]pyridine; WO2010/130424; Cid et al. J. Med. Chem. 2012, 55, 8770-8789) (20 mg/kg, i.v.) 30 min before the start of the activity recording combined with scopolamine (0.16 mg/kg, i.v.) just before the start of the activity measurements. Immediately after the injection of scopolamine, the rats were placed into the activity monitors and total distance travelled over the first 30 min was measured.
Solvent-Pretreated Control Rats.
Animals receiving the combination of JNJ-42153605 and scopolamine (n=433) almost always travelled a distance of less than 1500 cm (<1500 cm) (only 2.5% of the control rats travelled a distance of more than 1500 cm (>1500 cm)). On the other hand, animals challenged with scopolamine alone (n=215) always travelled a total distance of more than 1500 cm (>1500 cm) and almost always (in 95.8% of the rats) a distance of more than 4400 cm (>4400 cm). […] For reversal of the inhibitory effect of JNJ-42153605 on the scopolamine-induced hyperlocomotion, the following all-or-none criteria were adopted: (1) reversal: total distance >1500 cm.

A further series addresses T1, human mGlu2 receptor (Homo sapiens, UniProt Q14416).
T1 construct: expressed in transfected cells; host or cells: CHO cells
The series is described as follows: [35S]GTPγS binding assay (mGluR2 negative allosteric modulation, glutamate ~EC80 60 μM). The following applies: for Emax: maximal % inhibition relative to the control glutamate response (EC80 glutamate), read-out: GTPγS-hmGluR2 anGT Emax; for IC50: membranes from CHO cells transfected with human mGlu2 receptor, glutamate ~EC80 (60 μM), pIC50 = −log IC50 (M), read-out: GTPγS-hmGluR2 anGT pIC50 (converted). The format is biochemical. Here is the method: 1) [^35S]GTPγS Binding Assay
[^35S]GTPγS Binding Assay
Total reaction volume was 200 μl. […] Membrane-bound radioactivity was counted in a Topcount.
In general terms: GTPγS resists hydrolysis and so accumulates on activated G proteins.

The mark [1] stands for this setting: historical solvent-pretreated control rats, first 30 min.

T1 sequence (Q14416 19-872): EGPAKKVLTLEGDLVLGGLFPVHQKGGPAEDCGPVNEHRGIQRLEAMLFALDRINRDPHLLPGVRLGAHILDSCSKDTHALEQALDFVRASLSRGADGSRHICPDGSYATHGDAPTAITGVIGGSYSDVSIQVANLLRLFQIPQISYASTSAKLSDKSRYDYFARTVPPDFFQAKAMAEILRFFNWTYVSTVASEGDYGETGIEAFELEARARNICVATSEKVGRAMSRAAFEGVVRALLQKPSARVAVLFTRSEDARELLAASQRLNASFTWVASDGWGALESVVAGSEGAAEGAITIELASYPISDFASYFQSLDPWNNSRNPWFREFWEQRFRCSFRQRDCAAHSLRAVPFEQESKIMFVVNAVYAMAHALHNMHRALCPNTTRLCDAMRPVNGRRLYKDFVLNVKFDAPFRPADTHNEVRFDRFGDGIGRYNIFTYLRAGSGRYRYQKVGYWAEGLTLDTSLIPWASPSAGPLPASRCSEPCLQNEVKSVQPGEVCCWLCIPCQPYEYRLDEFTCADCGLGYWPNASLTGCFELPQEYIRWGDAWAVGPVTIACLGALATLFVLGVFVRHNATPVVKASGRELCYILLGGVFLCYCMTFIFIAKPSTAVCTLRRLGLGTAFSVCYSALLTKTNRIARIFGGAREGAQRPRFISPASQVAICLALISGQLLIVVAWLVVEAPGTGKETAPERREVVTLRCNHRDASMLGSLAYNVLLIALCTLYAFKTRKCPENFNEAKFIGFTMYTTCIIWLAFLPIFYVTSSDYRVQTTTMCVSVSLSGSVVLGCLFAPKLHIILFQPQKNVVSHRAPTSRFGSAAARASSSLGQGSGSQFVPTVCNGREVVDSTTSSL

`COc1cccc(C(=O)Nc2cnn3c2C(=O)N(c2ccc(C(F)(F)F)cc2)C[C@@H]3C)c1` [Co. No. 27]: the melting point was 136.91 °C. Further, the ED50 with rats was more than 2.5 mg/kg. At human mGlu2 receptor, the Emax was found to be 106% and the IC50 was 6.61e-09 M.

Compound `Cc1cc(C(=O)Nc2cnn3c2C(=O)N(c2ccc(C(F)(F)F)cc2)C[C@@H]3C)ccn1` [Co. No. 29, 2-Methyl-N-[(7S)-7-methyl-4-oxo-5-[4-(trifluoromethyl)phenyl]-6,7-dihydropyrazolo[1,5-a]pyrazin-3-yl]pyridine-4-carboxamide] yielded a melting point of 145.1 °C. In the series on rats, the ED50 was more than 2.5 mg/kg. Moreover, at human mGlu2 receptor, the Emax was found to be 100% and the IC50 is 6.92e-09 M.

Compound `Cc1cc(N2C[C@H](C)n3ncc(NC(=O)c4cncc(F)c4)c3C2=O)ccc1C(F)(F)F` [Co. No. 107] displayed a melting point of 155.04 °C. Besides, the 50% effective dose (ED50) in the series on rats is more than 0.63 mg/kg. On human mGlu2 receptor, the maximal effect (Emax) amounted to 108% and the IC50 is 2.69e-09 M.

`Cc1cnc(N)c(C(=O)Nc2cnn3c2C(=O)N(c2ccc(S(F)(F)(F)(F)F)cc2)C[C@@H]3C)c1` [Co. No. 200] yielded a melting point of 197.51 °C. For the same compound, the median effective dose (ED50) in the series on rats was more than 0.63 mg/kg. Moreover, on human mGlu2 receptor, the maximal effect (Emax) is 111% and the IC50 was 1.48e-09 M.

Regarding `C[C@H]1CN(c2ccc(C(F)(F)F)c(CF)c2)C(=O)c2c(NC(=O)c3cccnc3N)cnn21` [Co. No. 210], the melting point was determined as 176.26 °C. Further, the ED50 in the series with rats turned out to be 0.32 mg/kg. Further, on human mGlu2 receptor, the Emax is 106% and the IC50 is 2.09e-09 M.

As to `C[C@H]1CN(c2ccc(C(F)(F)F)c(Cl)c2)C(=O)c2c(NC(=O)c3cccnc3NCCO)cnn21` (racemic) [Co. No. 214], in the series on rats, the ED50 is 0.32 mg/kg. On human mGlu2 receptor, the Emax turned out to be 112% and the IC50 is 5.25e-10 M.

Consider `C[C@H]1CN(c2ccc(Cl)c(OC(F)F)c2)C(=O)c2c(NC(=O)c3ccc(N)nc3)cnn21` [Co. No. 18], for which the median effective dose (ED50) in the series on rats is more than 2.5 mg/kg. On human mGlu2 receptor, the Emax was 117% and the IC50 is 4.27e-09 M.

For the compound `C[C@H]1CN(c2ccc(Cl)c(Cl)c2)C(=O)c2c(NC(=O)c3cncc(F)c3)cnn21` [Co. No. 109], the melting point is 128.16 °C. The ED50 in the series on rats was more than 0.63 mg/kg. At human mGlu2 receptor, the maximal response (Emax) was determined as 105% and the IC50 is 1.38e-09 M.

Compound `C[C@H]1CN(c2ccc(C(F)F)c(Cl)c2)C(=O)c2c(NC(=O)c3ccc(N)nc3)cnn21` [Co. No. 6] gave a melting point of 177 °C. Further, in the series with rats, the median effective dose (ED50) is more than 2.5 mg/kg. Besides, the maximal effect (Emax) on human mGlu2 receptor was found to be 114%.

`C[C@H]1CN(c2ccc(C(F)(F)F)cc2)C(=O)c2c(NC(=O)c3cnc(N)cn3)cnn21` [Co. No. 45] returned a melting point of 287.45 °C. Moreover, the 50% effective dose (ED50) in the series on rats is more than 2.5 mg/kg. Moreover, at human mGlu2 receptor, the Emax was determined as 106% and the IC50 was 1.2e-08 M.

With `Cc1cncc(C(=O)Nc2cnn3c2C(=O)N(c2ccc(Cl)c(Cl)c2)C[C@@H]3C)c1` [Co. No. 108], the melting point amounted to 185.71 °C. Moreover, the ED50 in the series with rats is more than 0.63 mg/kg. Moreover, on human mGlu2 receptor, the Emax turned out to be 109% and the IC50 is 9.77e-10 M.

`Cc1cc(C(=O)Nc2cnn3c2C(=O)N(c2ccc(C(F)(F)F)c(C)c2)C[C@@H]3C)ccn1` [Co. No. 112] displayed a melting point of 128.97 °C. The ED50 in the series on rats was more than 0.63 mg/kg. Also, on human mGlu2 receptor, the Emax was determined as 106% and the IC50 is 4.68e-09 M.

Regarding `C[C@H]1CN(c2ccc(SC(F)(F)F)cc2)C(=O)c2c(NC(=O)c3cccnc3)cnn21` [Co. No. 179], the melting point is 110.73 °C. Also, the ED50 in the series on rats is more than 0.63 mg/kg. Further, at human mGlu2 receptor, the Emax came to 106% and the IC50 is 5.89e-09 M.

In turn, `COc1cc(N2C[C@H](C)n3ncc(NC(=O)c4ccnc(C)c4)c3C2=O)ccc1C(F)(F)F` [Co. No. 123] returned a melting point of 157.12 °C. For the same compound, the ED50 in the series with rats was more than 0.63 mg/kg. Further, on human mGlu2 receptor, the Emax turned out to be 107% and the IC50 is 2.63e-08 M.

`Cc1cccc(C(=O)Nc2cnn3c2C(=O)N(c2ccc(C(F)(F)F)cc2)C[C@@H]3C)n1` [Co. No. 34] displayed a melting point of 214.97 °C. In the series with rats, the median effective dose (ED50) is more than 2.5 mg/kg. Besides, on human mGlu2 receptor, the Emax was found to be 116% and the IC50 was 8.32e-09 M.

In turn, `Cc1cc(N2C[C@H](C)n3ncc(NC(=O)c4cnccn4)c3C2=O)ccc1C(F)(F)F` [Co. No. 114] had a melting point of 225.49 °C. Also, the ED50 in the series with rats was more than 0.63 mg/kg. Also, on human mGlu2 receptor, the maximum response (Emax) amounted to 106% and the IC50 was 2.51e-09 M.

As to `C[C@H]1CN(c2ccc(C(F)(F)F)cc2)C(=O)c2c(NC(=O)c3nccnc3N)cnn21` [Co. No. 206, 3-Amino-N-[(7S)-7-methyl-4-oxo-5-[4-(trifluoromethyl)phenyl]-6,7-dihydropyrazolo[1,5-a]pyrazin-3-yl]pyrazine-2-carboxamide], the melting point is 205.79 °C. Also, the ED50 in the series with rats is 0.505 mg/kg. On human mGlu2 receptor, the Emax came out at 110% and the IC50 is 3.02e-09 M.

On to `COc1cc(N2C[C@H](C)n3ncc(NC(=O)c4cnccn4)c3C2=O)ccc1C(F)(F)F` [Co. No. 118], for which the melting point worked out at 191.55 °C. For the same compound, in the series on rats, the ED50 is more than 0.63 mg/kg. On human mGlu2 receptor, the Emax was 108% and the IC50 was 4.27e-09 M.

`C[C@H]1CN(c2ccc(C(F)(F)F)cc2)C(=O)c2c(NC(=O)c3ccc(N)cc3)cnn21` [Co. No. 204] yielded a melting point of 250.78 °C. For the same compound, the ED50 with rats stood at 0.318 mg/kg. Also, at human mGlu2 receptor, the Emax came to 107% and the IC50 was 2.82e-09 M.

In turn, `C[C@H]1CN(c2ccc(C(F)(F)F)c(C#N)c2)C(=O)c2c(NC(=O)c3ccc(N)nc3)cnn21` [Co. No. 26] came in with a melting point of 216.96 °C. In addition, the median effective dose (ED50) in the series with rats was more than 2.5 mg/kg. On human mGlu2 receptor, the Emax is 106% and the IC50 was 6.46e-09 M.

In turn, `COc1cc(N2C[C@H](C)n3ncc(NC(=O)c4cncc(F)c4)c3C2=O)ccc1C(F)(F)F` [Co. No. 116] had a melting point of 162.96 °C. For the same compound, in the series with rats, the median effective dose (ED50) was more than 0.63 mg/kg. Also, at human mGlu2 receptor, the Emax was 104% and the IC50 was 1e-08 M.

As to `CN1[C@@H]2C[C@@H](OC(=O)[C@H](CO)c3ccccc3)C[C@H]1[C@@H]1O[C@@H]12` [Scopolamine, scopolamine, reference compound], in the series on rats (setting [1]), the “Rats with total distance >1500 cm (%)” value is on record as 100% and the “Rats with total distance >4400 cm (%)” value is given as 95.8%. Also, the “Total distance travelled, median (cm)” value with rats (historical solvent-pretreated control rats, first 30 min, scopolamine 0.16 mg/kg i.v., JNJ-42153605 20 mg/kg i.v.) amounted to 7246 cm.

On to `Cc1cnc(N)c(C(=O)Nc2cnn3c2C(=O)N(c2ccc(Cl)cc2)C[C@@H]3C)c1` [Co. No. 201], for which, in the series with rats, the median effective dose (ED50) is more than 0.63 mg/kg. For the same compound, at human mGlu2 receptor, the Emax was found to be 108% and the IC50 is 4.9e-09 M.

For `C[C@H]1CN(c2ccc(Cl)cc2)C(=O)c2c(NC(=O)c3ccc(N)nc3)cnn21` [Co. No. 36], the ED50 in the series with rats came out at 0.5 mg/kg. Also, on human mGlu2 receptor, the maximal effect (Emax) stood at 110% and the IC50 is 8.91e-09 M.

In the case of `C[C@H]1CN(c2ccc(C(F)(F)F)cc2)C(=O)c2c(NC(=O)c3c[nH]cn3)cnn21` [Co. No. 83], the melting point worked out at 277.42 °C. In addition, on human mGlu2 receptor, the maximal effect (Emax) is 101% and the IC50 is 1.12e-07 M.

Compound `Cc1c(F)cncc1C(=O)Nc1cnn2c1C(=O)N(c1ccc(C(F)(F)F)c(Cl)c1)C[C@@H]2C` [Co. No. 135] had a melting point of 97.9 °C. Besides, on human mGlu2 receptor, the maximum response (Emax) is 108% and the IC50 is 2.29e-09 M.

Consider `COc1nc(N2C[C@H](C)n3ncc(NC(=O)c4ccccc4)c3C2=O)ccc1C(F)(F)F` [Co. No. 70], for which the melting point was 201.06 °C. On human mGlu2 receptor, the maximum response (Emax) is 108% and the IC50 was 3.8e-08 M.

Turning to `C[C@H]1CN(c2ccccc2)C(=O)c2c(NC(=O)c3ccnc(N)c3)cnn21` [Co. No. 97], the melting point stood at 153.01 °C. Moreover, at human mGlu2 receptor, the maximum response (Emax) amounted to 111% and the IC50 was 3.16e-07 M.

On to `C[C@H]1CN(c2ccc(C(F)(F)F)cc2)C(=O)c2c(NC(=O)Cc3ccccc3)cnn21` [Co. No. 87], for which the melting point stood at 135.05 °C. Further, on human mGlu2 receptor, the Emax is 103% and the IC50 was 2e-07 M.
